Patent publication US6403614B1, “Benzothiophenes” (Eli Lilly and Company, priority 1997, dated 2002)

Experiments:
Format in all cases: in vivo, Sprague Dawley rats
ovariectomized rats [1] = assay: Four Day Ovariectomized Rat Model: Uterine Eosinophil Peroxidase (EPO) Assay; conditions: OVX rats, oral daily for four days
Excerpt: (§1) Estrogenicity: Four Day Ovariectomized Rat Model
(§2) Seventy-five day old female Sprague Dawley rats (weight range of 225 g-275 g) were obtained from Charles River Laboratories (Portage, Mich.). The animals were either bilaterally ovariectomized (OVX) or exposed to a Sham surgical procedure at Charles River Laboratories, and then shipped after one week. Upon arrival, these rats were housed in metal hanging cases in groups of three or four animals per cage, and had ad libitum access to food (Teklad diet, TD 89222, 0.5% calcium, 0.4% phosphorous; Madison, Wis.) and water. Room temperature was maintained at 22.2° C.±1.7° C. with a minimum relative humidity of 40%. The photoperiod in the room was twelve hours light and twelve hours dark. […]
(§3) After a one-week acclimation period (two weeks post-OVX), daily dosing with test compound and 17α-ethynylestradiol was initiated. […] The animals were then sacrificed by asphyxiation with CO2, the uterus was removed through a midline incision, and a wet uterine weight was determined.
Uteri were kept at 4° C. until time of enzymatic analysis. […] Upon addition of 0.01% hydrogen peroxide and […] o-phenylenediamine (final concentrations) in Tris buffer, the increase in absorbance was monitored for one minute at 450 nm. […] The maximal velocity of a fifteen second interval was determined over the initial, linear portion of the reaction curve.

ovariectomized rats [2] = assay: Four Day Ovariectomized Rat Model: wet uterine weight; conditions: OVX rats, orally administered at 0.1 mg/kg/day, four days, versus untreated ovariectomized animals
Excerpt: as §1
Seventy-five day old female Sprague Dawley rats (weight range of 225 g-275 g) were obtained from Charles River Laboratories (Portage, Mich.). The animals were either bilaterally ovariectomized (OVX) or exposed to a Sham surgical procedure at Charles River Laboratories, and then shipped after one week. Upon arrival, these rats were housed in metal hanging cases in groups of three or four animals per cage, and had ad libitum access to food (Teklad diet, TD 89222, 0.5% calcium, 0.4% phosphorous; Madison, Wis.) and water. Room temperature was maintained at 22.2° C.±1.7° C. with a minimum relative humidity of 40%. The photoperiod in the room was twelve hours light and twelve hours dark. Comparative data were obtained between untreated ovariectomized rats, ovariectomized rats treated with 17α-ethynylestradiol (EE2), and ovariectomized rats treated with representative compounds of the present invention.
as §3, with “initiated. The test compounds or 17α-ethynylestradiol (Sigma Chemical Co., St. Louis, Mo.) were given orally, unless otherwise stated, as a suspension in 20% cyclodextrin (CDX).” for “initiated.”

ovariectomized rats [3] = assay: Four Day Ovariectomized Rat Model: Serum Cholesterol Analysis; conditions: OVX rats, orally administered at 0.1 mg/kg/day, four days
Excerpt: as §1, §2, §3
The blood samples, collected as described above, were allowed to clot at room temperature for two hours, and serum was obtained following centrifugation for ten minutes at 3000 rpm. Serum cholesterol was determined using a high-performance cholesterol assay (Boehringer Mannheim Diagnostics, Indianapolis, Ind.). […] Cholesterol concentration was then calculated against a standard curve.

ovariectomized rats [4] = assay: Bone Sparing: Five Week Ovariectomized Rat Model, femur X-ray Bone Assay; conditions: OVX rats, oral gavage daily for 35 days, dose of 0.01 mg/kg
Excerpt: Seventy-five day old female Sprague Dawley rats (weight range of 275 g-350 g) were obtained from Charles River Laboratories (Portage, Mich.). The animals were either bilaterally ovariectomized (OVX) or exposed to a Sham surgical procedure at Charles River Laboratories, and then shipped the day following surgery. Upon arrival, these rats were housed in metal hanging cases in groups of three or four animals per cage, and had ad libitum access to food (Teklad diet, TD 89222, 0.5% calcium, 0.4% phosphorous; Madison, Wis.) and water. Room temperature was maintained at 22.2° C.±1.7° C. with a minimum relative humidity of 40%. The photoperiod in the room was twelve hours light and twelve hours dark. Test compound preparation was the same as that described in the Estrogenicty assay above. After a one day acclimation period (two days post-OVX), dosing with test compounds was initiated. Oral gavages 20% CDX, representative compound of the invention (0.01 to 10 mg/kg), or 17α-ethynylestradiol (100 μg/kg) were delivered daily for 35 consecutive days. On the evening following the final dose, the animals were fasted. The next morning the animals were aneshetized with a mixture of Ketaset® and Rompun® (67 and 6.7 mg/kg respectively). […] Quantitation was achieved by measuring the total number of pixels in a standard region of interest proximal to the growth plate, over a gray scale range of zero to 60.

Compound | eosinophil infiltration (uterine EPO) (ovariectomized rats [1]) | uterine weight (ovariectomized rats [2]) | serum cholesterol (ovariectomized rats [3]) | protection of the femur from bone loss (X-ray evaluation) (ovariectomized rats [4]) [%]
C#C[C@]1(O)CC[C@H]2[C@@H]3CCc4cc(O)ccc4[C@H]3CC[C@@]21C [EE2, 17α-ethynylestradiol] | substantial, expected increase in eosinophil infiltration | substantially greater than the uterine weight of untreated ovariectomized test animals | caused a decrease in serum cholesterol | 
CCOCOc1ccc(-c2sc3cc(OCOCC)ccc3c2C(=O)c2ccc(OCCN3CCCCC3)cc2)cc1 [Example 3, 2-(4-[Ethoxymethoxy]phenyl)-3-(4-[(2-Piperidin-1-yl)ethoxy]benzoyl)-6-Ethoxymethoxybenzo[b]thiophene] |  |  |  | 9.1
